Results reported in patent publication US6469062B2, “Use of 15-keto-prostaglandins in promoting bile secretion” (Sucampo A.G., priority 2000, dated 2002).

Legend:
dogs and cats = details: cited from earlier work
[1] = system: porcine of which liver was replaced by transplantation; details: intraportal administration; cited from earlier work
perfused rat liver = assay: Test Example 2: bile flow of isolated perfused rat liver
Procedure: Male Wister rats were used. Each rat was cannulated for collection of bile under pentobarbital sodium anesthesia. A catheter was inserted and fixed in the portal vein. Krebs-Ringer solution saturated with 95% O2 and 5% CO2 (pH 7.4, 37° C.) was infused via the catheter at a constant flow rate of 4.0 ml/min/g liver weight by means of peristaltic pump to perfuse the liver. The liver was removed under perfusion. In case where the bile secretion was necessary to maintain being the physiological level, the liver was perfused with Krebs-Ringer solution supplemented with sodium taurocolate (30 μmol/l). For the test group animals, the test compound 1 was added to the Krebs-Ringer solution. Bile of the each animals including test and control groups was collected in every 5 minutes.

rat isolated liver [2] = assay: Test Example 5: bile flow of cold preserved rat isolated liver, compound added to rinse solution; details: added to Krebs-Ringer rinse solution perfused for 40 minutes after 16-hour cold storage
Procedure: The perfusion protocol of the Test Example 4 was repeated except for the test compound 1 and the test compound 2 were added to the Krebs-Ringer solution, i.e. the rinse solution perfused for 40 minute's to determine the recovery of the bile flow.

[3] = system: anoxia/re-oxygenation perfused rat liver; assay: Test Example 3: bile flow recovery of anoxia/re-oxygenation perfused rat liver; details: 10 μM added at re-oxygenation after 20 minutes of anoxia; vs vehicle
Procedure: Isolated perfused liver sample was prepared by the same manner as described in the test example 2. Each livers of test and control groups was perfused with Krebs-Ringer solution saturated with 95% N2 and 5% CO2 for 20 minutes to expose the liver oxygen-free condition. After that, Krebs-Ringer solution saturated with 95% O2 and 5% CO2 was perfused to re-oxygenize the liver. At the re-oxygenization step, 10 μM of the test compound 1 was added to the Krebs-Ringer solution for the test group.

rat isolated liver [4] = assay: Test Example 4: bile flow of rat isolated liver, compound added to preservation solution; details: 10 μM added to U-W preservation solution, 4° C., 16 hours storage; 40 minutes reperfusion
Text: Male Wister Rats were anesthetized with pentobarital sodium and hepatic-portal region was exposed by abdominal midline incision. The common bile duct was cannulated and the portal stem was inserted with a 19 gauge surflo® needle equipped with a three way stopcock. […] Treitz' ligament, the ligament around the liver, and diaphragm were cut and the liver was removed to the outside of the body and subjected to extracoporeal perfusion. The liver was subjected to a fifteen minutes of pre-perfusion until its oxygen consumption achieved to constant and then, the perfusate was exchanged with University of Wisconsin solution (U-W solution) at 4° C. Immediately after finish of the exchange, the liver connected with the three-way stopcock was removed from the perfusion cycle and the inlet was clamped. Then the liver was putted into the U-W solution at the same temperature and stored for 16 hours. […] During the reperfusion period, bile flow was determined every 5 minutes.
In the above perfusion protocol, 10 μM of test compound 1 or test compound 2 (13,14-dihydro-15-keto-16,16-difluoro-17(R)-methyl-prostaglandin E1) were added to the U-W solution to determine the effects of these drugs on recovery of bile flow.

normal rats = assay: Test Example 1: bile flow in normal rats after oral administration; format: in vivo, rat; details: 100 μg/kg orally 3 times a day for 7 days; bile collected on day 8, 1 to 2 hours after cannulation; vs vehicle
Procedure: Male Wister rats were used. 100 μg/kg of test compound 1 (13,14-dihydro-15-keto-16, 16-difluoro-18(S)-methyl-prostaglandin E1) was administered orally to the test group animals (n=8) 3 times a day for 7days. To the control group animals (n=7), the same volume of the vehicle, i.e. 0.01% polysorbate 80, 0.5% ethanol in distilled water was administered. At the next day after the final administration (day 8), the common bile duct of the respective rat was cannulated under ether anesthesia and the rat was placed in ball man gauge for 1 hour to recover from anesthesia. The bile discharged over one hour time period, i.e. from 1 to 2 hours of the cannulation, was collected and determined bile flow.

implanted liver = details: added to liver preservation solution; rat liver transplantation model; cited from earlier work

Structure (SMILES): CCCCC[C@H](O)/C=C/[C@@H]1[C@H]2C/C(=C/CCCC(=O)O)O[C@H]2C[C@H]1O [prostacyclin]
- cholagogic effect (dogs and cats): cholagogic effect

Structure (SMILES): CCCCC[C@H](O)/C=C/[C@H]1C=CC(=O)[C@@H]1CCCCCCC(=O)O [PGA1]
- cholagogic effect (dogs and cats): cholagogic effect

Structure (SMILES): CCCCC[C@H](O)/C=C/[C@H]1[C@H](O)CC(=O)[C@@H]1CCCCCCC(=O)O [PGE1, prostaglandin E1]
- cholagogic effect (dogs and cats): cholagogic effect
- bile flow [1]: increased the bile flow

Structure (SMILES): CC[C@H](C)CC(F)(F)C(=O)CC[C@H]1[C@H](O)CC(=O)[C@@H]1CCCCCCC(=O)O [test compound 1, 13,14-dihydro-15-keto-16,16-difluoro-18(S)-methyl-prostaglandin E1]
- bile flow of the perfused rat liver (perfused rat liver; compound added to Krebs-Ringer perfusate): significantly increased bile flow
- cholagogic effect, dose dependence (perfused rat liver; under the presence of bile acid (sodium taurocolate 30 μmol/l)): dose dependent cholagogic effect
- bile flow, presence (TC(+)) or absence (TC(−)) of bile acid (perfused rat liver; with or without bile acid in the perfusate): increased the bile flow irrespective of the presence or absence of bile acid
- bile flow in reperfusion of cold preserved rat liver (rat isolated liver [2]): significantly increased
- bile flow recovery after anoxia/re-oxygenation [3]: significantly increased the bile flow
- bile flow at the reperfusion step (rat isolated liver [4]): increased the bile flow at the reperfusion step significantly
- normal rat bile flow (normal rats): significantly increased

Structure (SMILES): CCCCC[C@H](O)/C=C/[C@@H]1[C@@H](C/C=C\CCCC(=O)O)[C@@H](O)C[C@H]1O [PGF2a]
- cholagogic effect (dogs and cats): cholagogic effect

Structure (SMILES): CCCCC[C@H](O)/C=C/[C@H]1[C@H](O)CC(=O)[C@@H]1C/C=C\CCCC(=O)O [PGE2]
- cholagogic effect (dogs and cats): cholagogic effect

Structure (SMILES): CCCC(C)C(F)(F)C(=O)CCC1C(O)CC(=O)C1CCCCCCC(=O)O [test compound 2, 13,14-dihydro-15-keto-16,16-difluoro-17(R)-methyl-prostaglandin E1]
- bile flow in reperfusion of cold preserved rat liver (rat isolated liver [2]): significantly increased
- bile flow at the reperfusion step (rat isolated liver [4]): increased the bile flow at the reperfusion step significantly

Structure (SMILES): CCCC[C@H](C)C[C@H](O)/C=C/[C@@H]1C2CC(CCCCC(=O)O)=CC2C[C@H]1O (stereo partly shown) [TEI-9063]
- bile producing activity of the implanted liver (implanted liver): improved bile producing activity
